# Results: patent US7189720B2 (H. Lundbeck A/S, priority 1999, dated 2007)
# Where two headings read alike, the source gives them in different places.
# Target: T1, human Y5 receptor (Homo sapiens, UniProt Q15761)
# T1 construct: expressed in transfected cells; host or cells: mouse fibroblast LM(tk-) cells, e.g. L-hY5-7 (ATCC CRL-11995)
# T1 sequence (Q15761 1-445): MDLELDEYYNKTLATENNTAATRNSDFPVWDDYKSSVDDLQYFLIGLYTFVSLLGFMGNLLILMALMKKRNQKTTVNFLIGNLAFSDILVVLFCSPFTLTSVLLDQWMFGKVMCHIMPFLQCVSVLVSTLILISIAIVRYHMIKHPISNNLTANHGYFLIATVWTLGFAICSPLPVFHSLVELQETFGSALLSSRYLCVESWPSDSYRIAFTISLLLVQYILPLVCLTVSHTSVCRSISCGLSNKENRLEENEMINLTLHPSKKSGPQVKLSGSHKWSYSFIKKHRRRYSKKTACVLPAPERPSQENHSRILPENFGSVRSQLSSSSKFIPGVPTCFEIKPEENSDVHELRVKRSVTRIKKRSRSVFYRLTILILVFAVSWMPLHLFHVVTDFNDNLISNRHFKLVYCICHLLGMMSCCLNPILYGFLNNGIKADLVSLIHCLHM
# Experiment: Radioligand binding to membranes, cloned human Y5 receptor
# Conditions: read-out: Ki, nM hNPY-5
Structure (SMILES),Ki (Table 5),Ki (Table 6)
"COc1ccc(C)cc1S(=O)(=O)NCCCCCNc1nc(-c2nccs2)cs1 [Example 88, N1-(5-[4-(1,3-thiazol-2-yl)-1,3-thiazol-2-yl]aminopentyl)-2-methoxy-5-methyl-1-benzenesulfonamide]",13.7 nM,–
"COc1ccc(C)cc1S(=O)(=O)NC[C@H]1CC[C@H](Nc2nc(-c3nc(C)sc3C)cs2)CC1 [Example 89, trans-N1-[(4-[4-(2,5-Dimethyl-1,3-thiazol-4-yl)-1,3-thiazol-2-yl]aminocyclohexyl)methyl]-2-methoxy-5-methyl-1-benzenesulfonamide]",3.2 nM,–
"CN(C)S(=O)(=O)NC[C@H]1CC[C@H](Nc2nc(-c3nccs3)cs2)CC1 [Example 90, trans-N,N-dimethyl-N′-[(4-[4-(-1,3-thiazol-2-yl)-1,3-thiazol-2-yl]aminocyclohexyl)methyl]sulfamide]",17.5 nM,–
"CN(C)S(=O)(=O)NCCCCCNc1nc(-c2cccs2)cs1 [Example 91, N,N-Dimethyl-N′-(5-{[4-(2-thienyl)-1,3-thiazol-2-yl]amino}-pentyl)sulfamide]",12.4 nM,–
"COc1ccc(C)cc1S(=O)(=O)NCCCCCNc1nc(-c2cccs2)cs1 [Example 92, N1-(5-{[4-(2-Thienyl)-1,3-thiazol-2-yl]amino}pentyl)-2-methoxy-5-methyl-1-benzenesulfonamide]",7.9 nM,–
"COc1ccc(C)cc1S(=O)(=O)NCCCCCNc1nc(-c2nc(C)sc2C)cs1 [Example 93, N1-(5-[4-(2,5-Dimethyl-1,3-thiazol-4-yl)-1,3-thiazol-2-yl]aminopentyl)-2-methoxy-5-methyl-1-benzenesulfonamide]",3.6 nM,–
"Cc1nc(-c2csc(NCCCCCNS(=O)(=O)c3ccc(F)cc3)n2)c(C)s1 [Example 94, N1-(5-[4-(2,5-Dimethyl-1,3-thiazol-4-yl)-1,3-thiazol-2-yl]aminopentyl)-4-fluoro-1-benzenesulfonamide]",19.5 nM,–
"O=S(=O)(NCCCCCNc1nc(-c2nccs2)cs1)c1ccc(F)cc1 [Example 95, N1-(5-[4-(1,3-Thiazol-2-yl)-1,3-thiazol-2-yl]aminopentyl)-4-fluoro-1-benzenesulfonamide]",179 nM,–
"Cc1nc(-c2csc(NCCCCCNS(=O)(=O)N(C)C)n2)c(C)s1 [Example 96, N′-(5-[4-(2,5-Dimethyl-1,3-thiazol-4-yl)-1,3-thiazol-2-yl]aminopentyl)-N,N-dimethylsulfamide]",8.1 nM,–
Cc1nc(-c2csc(N[C@H]3CC[C@H](CNS(=O)(=O)c4ccc(F)cc4)CC3)n2)c(C)s1 [Example 97],6.6 nM,–
"Cc1nc(-c2cnc(NC[C@H]3CC[C@H](CNS(=O)(=O)N(C)C)CC3)s2)c(C)s1 [Example 99, trans-N′-[4-([5-(2,5-Dimethyl-1,3-thiazol-4-yl)-1,3-thiazol-2-yl]aminomethyl)cyclohexyl]methyl-N,N-dimethyl-sulfamide]",3.1 nM,–
"Cc1nc(-c2csc(NC[C@H]3CC[C@H](CNS(=O)(=O)N4CCOCC4)CC3)n2)c(C)s1 [Example 100, trans-N4-[4-([4-(2,5-Dimethyl-1,3-thiazol-4-yl)-1,3-thiazol-2-yl]aminomethyl)cyclohexyl]methyl-4-morpholinesulfonamide]",3.3 nM,–
"COCCN(C=O)[C@H]1CC[C@H](CNc2nc(-c3nc(C)sc3C)cs2)CC1 [Example 101, trans-N-[4-([4-(2,5-Dimethyl-1,3-thiazol-4-yl)-1,3-thiazol-2-yl]aminomethyl)cyclohexyl]-N-(2-methoxyethyl)formamide]",407 nM,–
"Cc1nc(-c2csc(NC[C@H]3CC[C@H](N(C=O)C(C)C)CC3)n2)c(C)s1 [Example 102, trans-N-[4-([4-(2,5-Dimethyl-1,3-thiazol-4-yl)-1,3-thiazol-2-yl]aminomethyl)cyclohexyl]-N-isopropylformamide]",72 nM,–
"CS(=O)(=O)NCCCCCCNc1nc2c(s1)CCSc1ccccc1-2 [Example 103, N-[6-(4,5-Dihydrobenzo[2,3]thiepino[4,5-d][1,3]thiazol-2-ylamino)hexyl]methanesulfonamide]",–,7.4 nM
"CCS(=O)(=O)NCCCCCCNc1nc2c(s1)CCSc1ccccc1-2 [Example 105, N1-[6-(4,5-Dihydrobenzo[2,3]thiepino[4,5-d][1,3]thiazol-2-ylamino)hexyl]-1-ethanesulfonamide]",–,5.4 nM

Structure (SMILES),Ki (Table 5),Ki (Table 6)
"O=S(=O)(NC[C@H]1CC[C@H](Nc2nc3c(s2)CCSc2ccccc2-3)CC1)c1cccs1 [Example 108, N2-{[4-(4,5-Dihydrobenzo[2,3]thiepino[4,5-d][1,3]thiazol-2-ylamino)cyclohexyl]methyl}-2-thiophenesulfonamide]",–,5.1 nM
"Cn1cnc(S(=O)(=O)NCCCCCNc2nc3c(s2)CCSc2ccccc2-3)c1 [Example 111, N4-[5-(4,5-Dihydrobenzo[2,3]thiepino[4,5-d][1,3]thiazol-2-ylamino)pentyl]-1-methyl-1H-4-imidazolesulfonamide]",–,17.2 nM
"O=S(=O)(NCCCCCCNc1nc2c(s1)CCSc1ccccc1-2)c1cccc2nsnc12 [Example 112, N4-[6-(4,5-Dihydrobenzo[2,3]thiepino[4,5-d][1,3]thiazol-2-ylamino)hexyl]-2,1,3-benzothiadiazole-4-sulfonamide]",–,4.4 nM
"COc1ccc(C)cc1S(=O)(=O)NCCCCCCNc1nc2c(s1)CCSc1ccccc1-2 [Example 113, N1-[6-(4,5-Dihydrobenzo[2,3]thiepino[4,5-d][1,3]thiazol-2-ylamino)hexyl]-2-methoxy-5-methyl-1-benzenesulfonamide]",–,5.4 nM
"O=S(=O)(NCCCCCCNc1nc2c(s1)CCSc1ccccc1-2)c1cccc2ccccc12 [Example 114, N1-[6-(4,5-Dihydrobenzo[2,3]thiepino[4,5-d][1,3]thiazol-2-ylamino)hexyl]-1-naphthalenesulfonamide]",–,16.6 nM
"CN(C)c1cccc2c(S(=O)(=O)NCCCCCCNc3nc4c(s3)CCSc3ccccc3-4)cccc12 [Example 115, N1-[6-(4,5-Dihydrobenzo[2,3]thiepino[4,5-d][1,3]thiazol-2-ylamino)hexyl]-5-(dimethylamino)-1-naphthalenesulfonamide]",–,71 nM
"O=[N+]([O-])c1ccccc1S(=O)(=O)NCCCCCCNc1nc2c(s1)CCSc1ccccc1-2 [Example 116, N1-[6-(4,5-Dihydrobenzo[2,3]thiepino[4,5-d][1,3]thiazol-2-ylamino)hexyl]-2-nitro-1-benzenesulfonamide]",–,7.1 nM
"O=S(=O)(NCCCCCCNc1nc2c(s1)CCSc1ccccc1-2)c1c(Cl)nc2sccn12 [Example 117, N5-[6-(4,5-Dihydrobenzo[2,3]thiepino[4,5-d][1,3]thiazol-2-ylamino)hexyl]-6-chloroimidazo[2,1-b][1,3]thiazole-5-sulfonamide]",–,6.6 nM
"COc1ccc(C)cc1S(=O)(=O)NC[C@H]1CC[C@H](Nc2nc3c(s2)CCSc2ccccc2-3)CC1 [Example 119, N1-{[4-(4,5-Dihydrobenzo[2,3]thiepino[4,5-d][1,3]thiazol-2-ylamino)cyclohexyl]methyl}-2-methoxy-5-methyl-1-benzenesulfonamide]",–,14.1 nM
"O=S(=O)(NC[C@H]1CC[C@H](Nc2nc3c(s2)CCSc2ccccc2-3)CC1)c1ccc(-c2ccccn2)s1 [Example 120, N2-{[4-(4,5-Dihydrobenzo[2,3]thiepino[4,5-d][1,3]thiazol-2-ylamino)cyclohexyl]methyl}-5-(2-pyridyl)-2-thiophenesulfonamide]",–,54 nM
"O=S(=O)(NC[C@H]1CC[C@H](Nc2nc3c(s2)CCSc2ccccc2-3)CC1)c1cccc2ccccc12 [Example 121, N1-{[4-(4,5-Dihydrobenzo[2,3]thiepino[4,5-d][1,3]thiazol-2-ylamino)cyclohexyl]methyl}-1-naphthalenesulfonamide]",–,18.4 nM
"CN(C)c1cccc2c(S(=O)(=O)NC[C@H]3CC[C@H](Nc4nc5c(s4)CCSc4ccccc4-5)CC3)cccc12 [Example 122, N1-{[4-(4,5-Dihydrobenzo[2,3]thiepino[4,5-d][1,3]thiazol-2-ylamino)cyclohexyl]methyl}-5-(dimethylamino)-1-naphthalenesulfonamide]",–,27 nM
"CN(C)c1cccc2c(S(=O)(=O)NCCCCCNc3nc4c(s3)CCSc3ccccc3-4)cccc12 [Example 123, N1-[5-(4,5-Dihydrobenzo[2,3]thiepino[4,5-d][1,3]thiazol-2-ylamino)pentyl]-5-(dimethylamino)-1 naphthalenesulfonamide]",–,161 nM
"O=[N+]([O-])c1ccccc1S(=O)(=O)NC[C@H]1CC[C@H](Nc2nc3c(s2)CCSc2ccccc2-3)CC1 [Example 124, N1-{[4-(4,5-Dihydrobenzo[2,3]thiepino[4,5-d][1,3]thiazol-2-ylamino)cyclohexyl]methyl}-2-nitro-1-benzenesulfonamide]",–,11.5 nM
"Cn1cnc(S(=O)(=O)NC[C@H]2CC[C@H](Nc3nc4c(s3)CCSc3ccccc3-4)CC2)c1 [Example 125, N4-{[4-(4,5-Dihydrobenzo[2,3]thiepino[4,5-d][1,3]thiazol-2-ylamino)cyclohexyl]methyl}-1-methyl-1h-4-imidazolesulfonamide]",–,33 nM
"O=S(=O)(NC[C@H]1CC[C@H](Nc2nc3c(s2)CCSc2ccccc2-3)CC1)c1ccc(-c2ccon2)s1 [Example 126, N2-{[4-(4,5-Dihydrobenzo[2,3]thiepino[4,5-d][1,3]thiazol-2-ylamino)cyclohexyl]methyl}-5-(3-isoxazolyl)-2-thiophenesulfonamide]",–,34 nM
